In ChEMBL document CHEMBL3297643, “Chemical constituents from Eucalyptus citriodora Hook leaves and their glucose transporter 4 translocation activities” (Bioorg Med Chem Lett, 2014):
Activity calls are given as the source filed them. The calls are words filed in the database; no cut-off is given here.

molecular target: T1, Solute carrier family 2, facilitated glucose transporter member 4 (Rattus norvegicus) (UniProt P19357); assay: Enhancement of GLUT4 translocation in rat L6 cells expressing pIRAP-mOrange cDNAs at 10 uM after 10 mins by fluorescence assay relative to control; type: cell-based
T1 sequence (whole entry): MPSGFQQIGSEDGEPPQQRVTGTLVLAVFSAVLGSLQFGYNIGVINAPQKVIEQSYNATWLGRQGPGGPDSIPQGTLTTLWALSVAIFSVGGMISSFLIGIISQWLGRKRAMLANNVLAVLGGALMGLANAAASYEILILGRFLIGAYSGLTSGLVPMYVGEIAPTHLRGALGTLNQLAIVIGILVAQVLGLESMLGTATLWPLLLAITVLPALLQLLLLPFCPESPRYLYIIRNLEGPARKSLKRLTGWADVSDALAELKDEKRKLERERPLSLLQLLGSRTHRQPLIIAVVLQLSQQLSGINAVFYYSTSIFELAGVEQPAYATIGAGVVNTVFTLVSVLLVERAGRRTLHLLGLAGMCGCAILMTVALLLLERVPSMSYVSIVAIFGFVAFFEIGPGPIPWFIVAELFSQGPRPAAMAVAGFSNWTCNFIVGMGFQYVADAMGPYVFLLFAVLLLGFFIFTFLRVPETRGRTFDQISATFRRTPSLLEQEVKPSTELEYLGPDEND

SMILES	fold change (FC)	Activity
C[C@@H]1CC[C@]2(C(=O)O)CC[C@]3(C)C(=CC[C@@H]4[C@@]5(C)C[C@@H](O)[C@@H](O)C(C)(C)[C@@H]5CC[C@]43C)[C@@H]2[C@]1(C)O	0.7	
CC1(C)CC[C@]2(C(=O)O)CC[C@]3(C)C(=CC[C@@H]4[C@@]5(C)CC[C@H](O)C(C)(C)[C@@H]5CC[C@]43C)[C@@H]2C1	0.7	
CC(C)CC1C2=C(Oc3cc(O)c(C(=O)CCc4ccccc4)c(O)c31)C(C)(C)C(=O)C(C)(C)C2=O (racemic)	0.49	
O=c1c(OC2O[C@H](CO)[C@@H](O)[C@H](O)[C@H]2O)c(-c2cc(O)c(O)c(O)c2)oc2cc(O)cc(O)c12 (some centres not stated)		inactive
O=C(O)c1cc(O)c(O)c(O)c1		inactive
C[C@H]1[C@H](C)CC[C@]2(C(=O)O)CC[C@]3(C)C(=CC[C@@H]4[C@@]5(C)C[C@@H](O)[C@H](O)[C@@](C)(CO)[C@@H]5[C@H](O)C[C@]43C)[C@H]12	0.7	
C=C(C)[C@@H]1CC[C@]2(C(=O)O)CC[C@]3(C)[C@H](CC[C@@H]4[C@@]5(C)CC[C@H](O)C(C)(C)[C@@H]5CC[C@]43C)[C@@H]12	2.38	
O=C1c2c(O)cc(O)cc2O[C@@H](c2ccc(O)cc2)[C@@H]1O		inactive
C[C@H]1[C@H](C)CC[C@]2(C(=O)O)CC[C@]3(C)C(=CC[C@@H]4[C@@]5(C)C[C@@H](O)[C@H](O)[C@@](C)(CO)[C@@H]5CC[C@]43C)[C@H]12	0.47	
C[C@H]1[C@H](C)CC[C@]2(C(=O)O)CC[C@]3(C)C(=CC[C@@H]4[C@@]5(C)C[C@@H](O)[C@H](O)C(C)(C)[C@@H]5CC[C@]43C)[C@H]12	1.78	
O=c1c(O[C@@H]2O[C@H](CO)[C@@H](O)[C@H](O)[C@H]2O)c(-c2ccc(O)c(O)c2)oc2cc(O)cc(O)c12		inactive
C[C@H]1[C@H](C)CC[C@]2(C(=O)O)CC[C@]3(C)C(=CC[C@@H]4[C@@]5(C)CC[C@H](O)C(C)(C)[C@@H]5CC[C@]43C)[C@H]12	0.7	
